Results taken from patent publication US4663456A, “2-(substituted piperazinylalkyl)β-carbolines useful in treatment of psychological disorders” (American Home Products Corporation, priority 1985, dated 1987).

Assays:
[1] = system: conditioned avoidance responding in trained male CD rats; experiment: conditioned avoidance lever response test (block of avoidance responding, i.p.); format: in vivo, male CD rats (Charles River); details: Rattus norvegicus, ip, from dose-effect regression line, read-out: AB50 (50% block in avoidance responding)
Excerpt: The antipsychotic properties of the compounds of this invention were established by standard pharmacologically accepted procedures involving conditioned avoidance studies in which trained male CD rats (Charles River), 400-450 gm body weight are exposed to a fifteen second warning tone (conditioned stimulus) continued for an additional fifteen seconds accompanied by electric shock. The rat can avoid the electric shock by depression of a response lever (lever-response). A response during the initial warning tone is considered an avoidance response. The avoidance response is determined and expressed as a percentage of total trials from an appropriate number of trials and a 50% block in avoidance responding (AB50) is obtained from a dose-effect regression line. All the data is based upon (mg/kg) dosing of the animals.

limbic D-2 = target: T1, limbic D-2 (Rattus norvegicus, UniProt P61169); experiment: limbic D-2 binding (3H-spiroperidol, homogenized limbic brain tissue)
T1 construct: from tissue; host or cells: homogenized limbic brain tissue
Description: Binding in the presence of the test compound is expressed as a percent of specific binding (total binding less binding in the presence of 1 μM (+)butaclamol). An inhibition constant (Ki) is calculated for each test compound to catagorize its limbic D-2 binding potential. The larger the number, the less potential for dopamine receptor binding and attendant side effects from administration of the antipsychotic agent.

T1 sequence (P61169 whole entry): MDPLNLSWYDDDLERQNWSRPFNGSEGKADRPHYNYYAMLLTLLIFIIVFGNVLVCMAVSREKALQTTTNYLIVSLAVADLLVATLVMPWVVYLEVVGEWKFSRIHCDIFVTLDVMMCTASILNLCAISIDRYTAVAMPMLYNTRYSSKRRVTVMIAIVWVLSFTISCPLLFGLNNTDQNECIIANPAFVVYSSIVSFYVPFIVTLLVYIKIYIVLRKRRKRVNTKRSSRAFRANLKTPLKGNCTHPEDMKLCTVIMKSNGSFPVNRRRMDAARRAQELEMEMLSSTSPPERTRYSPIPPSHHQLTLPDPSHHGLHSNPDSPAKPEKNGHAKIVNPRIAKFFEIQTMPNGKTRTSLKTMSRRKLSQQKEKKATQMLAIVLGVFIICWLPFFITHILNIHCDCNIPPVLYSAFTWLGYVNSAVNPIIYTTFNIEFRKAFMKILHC

SMILES	ED50 [1] [mg/kg]	Ki (limbic D-2; bound) [µM]	percent, limbic D-2 binding (limbic D-2; concentration not given) [%]
c1cnc(N2CCN(CCCN3CCc4c([nH]c5ccccc45)C3)CC2)nc1 [Example 1, 2,3,4,9-Tetrahydro-2-[3-[4-(2-pyrimidinyl)-1-piperazinyl]propyl]-1H-pyrido[3,4-b]indole]	34.7	–	–
C[C@@H]1CN(CCCN2CCc3c([nH]c4ccccc34)C2)C[C@@H](C)N1 (relative stereo) [Example 3, 2-[3-(trans-3,5-Dimethyl-1-piperazinyl)propyl]-2,3,4,9-tetrahydro-1H-pyrido[3,4-b]indole]	–	> 5	38
